This is an account of results in patent publication US20250090554A1, “A METHOD OF TREATING DEPRESSION BY IMMUNE MODULATION” (MYND LIFE SCIENCES INC., priority 2021, published 2025).

For assay [1], the system named is ABCF1. As to the kind of experiment: ABCF1 real time RT-PCR in RAW macrophage cell line treated with drugs. In kind it is cell-based, murine. As to the method: (§1) FIG. 1 illustrates that Escitalopram induces ABCF1 in a Macrophage cell line: RAW macrophages were plated at 1×10^5 cells/well and cultured for 2 days. The cells were incubated with 0.3 mM Escitalopram for 1 hour, and then harvested for total RNA, which was extracted for real time RT-PCR specific for ABCF1 and IL-4. CT values were normalized with CT value for the housekeeping gene from the DMSO control. The difference in the expression after drug treatment is consistent with polarization towards an M2-like phenotype (data were consistent in 3 separate experiments).
FIG. 2 illustrates the effect of psylocibin, psylocin and their analogs on ABCF1 transcription in a macrophage cell line. Briefly, the Macrophage cell line RAW264.7 (ATCC) were grown to 80% confluency in growth media (DMEM+10% FBS+glutamine). Dilutions of psylocibin, psylocin and their analogs were made at desired final concentrations for a Dose response experiment. The concentrations' used for this experiment are: 10 nM, 100 nM, 500 nM for Psilocin, Psylocibin, 4-Acetoxy-N, N-dimthyltryptamine, O-Acetyl Psilocin Fumerate, and 4-acetoxyindole. The cells were incubated for 2 hours and then harvested for total RNA, which was extracted for real time RT-PCR specific for ABCF1. Untreated cells were used as negative control and Escitalopram at 0.3 mM was used as a positive control to activate ABCF1 expression for all the experiments. ES=escitalopram; PSYB=Psylocibin; PSIC=Psilocin; DMT=4-Acetoxy-N, N-dimthyltryptamine; APF=O-Acetyl Psilocin Fumerate, and AOI=4-acetoxyindole.
• 1. Macrophage cell line RAW264.7 (ATCC) were grown to 80% confluency in growth media (DMEM+10% FBS+glutamine). • 2. Dilutions of the drugs were made at desired final concentrations for a Dose response experiment. The concentrations' used for this experiment are: 10 nM, 100 nM, 500 nM for Psilocin, Psylocibin, 4-Acetoxy-N, N-dimthyltryptamine, O-Acetyl Psilocin Fumerate, and 4-acetoxyindole. • 3. A time course response experiment was done for the above stated drugs at concentrations mentioned above (10 nM, 100 nM, 500 nM). The time points chosen were 0, 30 mins, 2 hours and 24 hour. • 4. Untreated cells were used as negative control and Escitalopram at 0.3 mM was used as a positive control to activate ABCF1 expression for all the experiments. Analysis by qPCR:
• 1. Post treatment with drugs at different time points, the reaction was stopped by removing the media with the drug. Cells were then collected and RNA was isolated from these. • 2. After checking the quality of the RNA, cDNA was generated and qPCR was run with ABCF1 primers as the target gene and GAPDH as the house keeping gene. • 3. Normalized against the expression level of GAPDH, the fold change expression level of ABCF1 was calculated and tabulated for all treatment conditions.
For orientation: Real-time PCR tracks product formation cycle by cycle.

The next assay has as its system IL-4. As to the kind of experiment: IL-4 real time RT-PCR in RAW macrophages treated with Escitalopram. In kind it is cell-based, murine. As to conditions: FIG. 1: 0.3 mM Escitalopram for 1 hour. As to the method:
as §1

The subject of assay [2] is ABCF1. As to the kind of experiment: ABCF1 expression in bone marrow after in vivo drug treatment of mice. The following applies: for ABCF1 expression levels increased in bone marrow (fold): 30 mins treatment in vivo. Set-up: species or system mice (C57Bl/6). As to the method: • Species strain: C57Bl/6 • Tissues collected: Brain, Bone marrow, PBMC • Drug treatment: • a. 30 minutes Drug treatment (PBS control, Escitalopram 50 mg/kg, Psilocybin 25 mg/kg) • b. 30 minutes Drug treatment after 30 minutes LPS stimulation (PBS control, Escitalopram 50 mg/kg, O-Acetyl Psilocin Fumarate (APF) 25 mg/kg, 4-AcetoxyIndole (AOI) 2.5 mg/kg, 4-AcO-DET (AODET) 25 mg/kg) • Method: • Weighed and injected the drug into the mice by Intraperitoneal injection. • Euthanized the mice 30 minutes after injections with isoflurane and CO2 • Post cervical Dislocation performed cardiac puncture to collect the whole blood from mice. • Opened the cephalic bone to collect the whole brain. • Removed the skin and muscles, took out both femur and tibia for bone marrow collection. • Tissue process procedures: • Brain—flash frozen and stored hemisphere in-80 for further molecular experiments and sent another part with buffer for sequencing. The frozen Brains were Dounce-homogenized. […]

Assay [3] relates to ABCF1. As to the kind of experiment: ABCF1 expression in whole brain after in vivo drug treatment of mice. Set-up: species or system mice (C57Bl/6). The following applies: Escitalopram 50 mg/kg, psilocybin 25 mg/kg, 30 minutes.
In assay [4] the test system is ABCF1. The following applies: peripheral blood mononuclear cells of patients; cited from earlier work.

For the molecule `CCCCCc1cc(O)c(C/C=C(\C)CCC=C(C)C)c(O)c1` [Cannabigerol], in the assay with ABCF1 [1] (RAW264.7 cells, post 2 hr treatment with 100 nM), the “ABCF1 expression levels increased (fold)” value amounted to 8 folds.

Take `CN(C)CCC[C@@]1(c2ccc(F)cc2)OCc2cc(C#N)ccc21` [Escitalopram]: the “IL-4 induction (fold) in the macrophage cell line” value in the assay with IL-4 is “approximately 5 fold”. The “ABCF1 expression in the bone marrow” value with ABCF1 [2] (Escitalopram 50 mg/kg, psilocybin 25 mg/kg, mice, 30 minutes) is listed as “induces ABCF1 expression”. The “ABCF1 expression levels increased in bone marrow (fold)” value with ABCF1 [2] is reported as 6 folds. The “ABCF1 expression in the whole brain” value in the assay on ABCF1 [3] is reported as “induce ABCF1 expression”. For the same molecule, the “ABCF1 transcription in PBMCs of patients responding to treatment” value with ABCF1 [4] was “increased the transcription”. For the same molecule, the “ABCF1 expression in RAW macrophages cell cultures” value in the assay on ABCF1 [1] (Escitalopram 0.6 nM, Psilocybin 500 nM, 2 hrs, vs untreated control) is listed as “induces ABCF1 expression”. In the assay on ABCF1 [1] (RAW macrophages, 0.3 mM Escitalopram, 1 hour), the “ABCF1 induction in a macrophage cell line” value was “induces ABCF1”. In addition, in the assay on ABCF1 [1] (RAW macrophages, FIG. 1: 0.3 mM Escitalopram for 1 hour), the “ABCF1 induction (fold) in the macrophage cell line” value is listed as “approximately 20 fold”.

On to `CN(C)CCc1c[nH]c2cccc(OP(=O)(O)O)c12` [Psilocybin, [3-(2-Dimethylaminoethyl)-1H-indol-4-yl] dihydrogen phosphate], for which, in the assay with ABCF1 [2], the “ABCF1 expression levels increased in bone marrow (fold)” value turned out to be 2 folds.
